Ends that are not written are not given here.
Key:
HIV-1IIIB = assay: HIV-1 antiviral assay in CEM-SS cells; conditions: peptides 10 micrograms per ml, 6 days post-infection
HCMV strain AD169 = assay: HCMV plaque formation assay in MRC-5 cells; conditions: peptides 10 micrograms per ml, 7-10 days
[1] = tested on: hepatitis B virus (HBV) ayw strain; assay: HBV experimental assay system (HepG2-2.2.15, secreted HBV DNA by TaqMan PCR); format: cell-based; conditions: 10 micrograms per ml; 6 days; combination 0.95 mole peptide 1 and 1.05 mole peptide 2
Procedure: HepG2-2.2.15 cells were plated in 96-well microtiter plates. After 16-24 hours the confluent monolayer of HepG2-2.2.15 cells was washed and the medium was replaced with complete medium containing test peptides—10 micrograms per ml—in duplicate. Lamivudine (3TC) was used as the positive control, while media alone was added to the cells as a negative control (virus control). Three days later the culture medium was replaced with fresh medium containing the peptides. Six days following the initial administration of the peptides, the cell culture supernatants was collected, treated with pronase and DNAse and then used in a real-time quantitative TaqMan PCR assay. The PCR-amplified HBV DNA was detected in real-time by monitoring increases in fluorescence signals that result from the exonucleolytic degradation of a quenched fluorescence probe molecule that hybridizes to the amplified HBV DNA. For each PCR amplification, a standard curve was simultaneously generated using dilutions of purified HBV DNA. Antiviral activity was calculated from the reduction in HBV DNA levels (% virus control). A novel dye uptake assay was then employed to measure cell viability, which is used to calculate toxicity (% cell control).

[2] = tested on: Primary Human endothelial cells (HUVEC); assay: Endothelial cell migration assay; format: cell-based; conditions: 10 micrograms per ml; 22 hours
HUVEC = assay: Endothelial tube formation assay; format: cell-based, human; conditions: 10 micrograms per ml; 20 hours
Procedure: The endothelial tube formation assay is based on the ability of endothelial cells to form three-dimensional capillary-like tubular structures when cultured on a gel of basement membrane extract. […] Pre-labeled HUVEC with Calcein AM were seeded in a 96-well culture plate coated with extracellular metrix (Chemicon international Cat. […] Positive control was vehicle only. […] Duplicate wells for each treatment were photographed and quantitatevily analyzed for an average tubule length using image analysis software ImageProPlus. Raw data were expressed as average tubule lengths in pixels ±standard deviation. Statistic p values were computed using the Student's t-test.

murine spleen cells = assay: Th1/Th2 cytokine profiling assay (Ovalbumin-restimulated spleen cells); format: cell-based, Balb/c mice; conditions: 10 micrograms per ml; 72 hours; combination 0.95 mole peptide 1 and 1.05 mole peptide 2
Procedure: On day 50, spleens of the mice were harvested (3 weeks after last boost with Ovalbumin). Cells were cultured (2×10^5/well in triplicate) and incubated with culture medium or test peptides—10 micrograms per ml—for 30 min. Thereafter, additional Ovalbumin was added to the cells at 10 micrograms/ml for in vitro restimulation of the cells. 72 hours later, cell supernatants were harvested and assayed using the Becton Dickinson Mouse Th1/Th2 Cytokine CBA Kit.

Compound: Cc1cn([C@H]2C[C@H](N=[N+]=[N-])[C@@H](CO)O2)c(=O)[nH]c1=O [AZT]
- inhibition of HIV-1 activity on tested T-cells (HIV-1IIIB): expected levels of antiviral activity

Compound: Nc1nc(O)c2ncn(COC(CO)CO)c2n1 [Ganciclovir, reference compound]
- inhibition of HCMV plaque formation as compared to the virus control (HCMV strain AD169): expected levels of antiviral activity

Compound: CC(C)(C)NC(=O)[C@@H]1CN(Cc2cccnc2)CCN1C[C@@H](O)C[C@@H](Cc1ccccc1)C(=O)N[C@H]1c2ccccc2C[C@H]1O [indinavir]
- inhibition of HIV-1 activity on tested T-cells (HIV-1IIIB): expected levels of antiviral activity

Compound: Trp-Tyr-Lys-His-Val-Ala-Ser-Pro-Arg-Tyr-His-Thr-Val-Gly-Arg-Ala-Ala-Gly-Leu-Leu-Met-Gly-Leu-Arg-Arg-Ser-Pro-Tyr-Leu-Trp-OH (WYKHVASPRYHTVGRAAGLLMGLRRSPYLW-OH) [Peptide 2, Neuropeptide W-30, commercially available known peptide]
- inhibition of HBV replication as compared to the virus control infection [1]: 10.7%
- inhibition of the migration of human endothelial cells [2]: 17%
- inhibition of the tube formation of human endothelial cells (HUVEC): 16%
- inhibition of HCMV plaque formation as compared to the virus control (HCMV strain AD169): did not inhibit
- change of the production of IFN-γ (figure = decreased by) (murine spleen cells): 25.5%
- change of the production of IL-2 (figures = increased by) (murine spleen cells): 82.1%
- change of the production of IL-4 (figure = induced by) (murine spleen cells): did not significantly change
- change of the production of IL-5 (figures = decreased by) (murine spleen cells): 29.3%
- change of the production of TNF-alpha (murine spleen cells): did not significantly change
